Measured values published in US9511107B2, “Phenolic compositions derived from apple skin and uses thereof” (priority 2010, dated 2016).

Experiments:
primary cortical neurons = assay: LDH release of primary cortical neurons subjected to oxygen glucose deprivation (OGD); format: cell-based, mouse; conditions: comparison with F4; concentration not given
Protocol: Lactate dehydrogenase is a stable cytosolic enzyme that is released by necrotic cells upon membrane damage. The membrane integrity of cortical neurons was assayed by measuring the release of lactate dehydrogenase (LDH) using the Cytotoxicity Detection Kit^PLUS (Roche Applied Science). This assay kit detects LDH released into culture supernates by a coupled enzymatic reaction. Positive (100% LDH release) and negative (spontaneous LDH release) controls were prepared in triplicate according to the manufacturer's instructions. Primary cortical neuron cultures were prepared from cerebral cortices of embryonic day 16 CD1 mouse embryos. Cortical neuron cultures were exposed to vehicle (0.1% dimethyl sulfoxide (DMSO)) or F4 at concentrations of 1, 0.1 or 0.01 μg/mL in serum-free conditions for a period of 12 h before they were subjected to oxygen glucose deprivation (OGD). The neurons were exposed to vehicle or F4 at concentrations of 1, 0.1 or 0.01 μg/mL phenolics throughout the 12 h period of OGD. Following, cell culture supernates were collected for determination of released LDH. Absorbance was measured at 490 nm with a reference wavelength of 620 nm. Percentage of total LDH release was calculated by following the instructions provided by the manufacturer. Background was subtracted and LDH release in each sample was expressed as a percentage of the positive control.

[1] = humans, 1 g per day for 1 month; cited from earlier work

| Structure (SMILES) | reduction of death of primary cortical neurons subjected to OGD (F4 components and metabolites, FIG. 7) (primary cortical neurons) | safety [1] |
| --- | --- | --- |
| COc1cc(-c2oc3cc(O)cc(O)c3c(=O)c2O[C@@H]2O[C@H](C(=O)O)[C@@H](O)[C@H](O)[C@H]2O)ccc1O [IR3GlcA] | no significant reduction | – |
| O=c1c(O[C@@H]2O[C@H](CO)[C@@H](O)[C@H](O)[C@H]2O)c(-c2ccc(O)c(O)c2)oc2cc(O)cc(O)c12 [Fraction Q3G, quercetin 3-O-glucoside] | no significant reduction | – |
| O=c1c(O)c(-c2ccc(O)c(O)c2)oc2cc(O)cc(O)c12 [Q, Quercetin] | no significant reduction | safe |
